# Measurements published in patent publication US8993309B2, “Predictive marker for topoisomerase I inhibitors” (Boston Medical Center Corporation, priority 2008, dated 2015).
# Experiments:
# [1] = molecular target: T1, DNA-PK (Homo sapiens, UniProt P78527); assay: CPT induced topoI downregulation in HeLa cells with or without DNA-PK inhibitor (anti-topoI immunoblot); type: cell-based; conditions: CPT treatment plus DNA-PK inhibitor (FIG. 9)
# T1 construct: endogenous in cells; host or cells: HeLa
# Description: Protein levels were determined by immuno blot analysis of cell lysate with anti-β actin.
# [2] = test system: HIV-1; conditions: acute and chronic infections, in vitro; cited from earlier work
# [3] = test system: leukemia L-1210; conditions: experimentally transplanted leukemia L-1210 in mice; cited from earlier work
# [4] = test system: GFP-topoI and BRCA1; assay: co-immunostaining of GFP-topoI and BRCA1 after CPT treatment; type: cell-based; conditions: in response to treatment with CPT
# [5] = test system: biosynthesis of nucleic acids; conditions: cited from earlier work
# [6] = test system: Walker 256 tumor; conditions: experimentally transplanted Walker 256 tumor in rats; cited from earlier work
# [7] = molecular target: T2, topoI (Homo sapiens, UniProt P11387); assay: topoI down-regulation in BRCA1-silenced cells; type: cell-based; conditions: BRCA1-silenced Hela cells
# T2 construct: endogenous in cells
# T2 sequence (P11387 1-765): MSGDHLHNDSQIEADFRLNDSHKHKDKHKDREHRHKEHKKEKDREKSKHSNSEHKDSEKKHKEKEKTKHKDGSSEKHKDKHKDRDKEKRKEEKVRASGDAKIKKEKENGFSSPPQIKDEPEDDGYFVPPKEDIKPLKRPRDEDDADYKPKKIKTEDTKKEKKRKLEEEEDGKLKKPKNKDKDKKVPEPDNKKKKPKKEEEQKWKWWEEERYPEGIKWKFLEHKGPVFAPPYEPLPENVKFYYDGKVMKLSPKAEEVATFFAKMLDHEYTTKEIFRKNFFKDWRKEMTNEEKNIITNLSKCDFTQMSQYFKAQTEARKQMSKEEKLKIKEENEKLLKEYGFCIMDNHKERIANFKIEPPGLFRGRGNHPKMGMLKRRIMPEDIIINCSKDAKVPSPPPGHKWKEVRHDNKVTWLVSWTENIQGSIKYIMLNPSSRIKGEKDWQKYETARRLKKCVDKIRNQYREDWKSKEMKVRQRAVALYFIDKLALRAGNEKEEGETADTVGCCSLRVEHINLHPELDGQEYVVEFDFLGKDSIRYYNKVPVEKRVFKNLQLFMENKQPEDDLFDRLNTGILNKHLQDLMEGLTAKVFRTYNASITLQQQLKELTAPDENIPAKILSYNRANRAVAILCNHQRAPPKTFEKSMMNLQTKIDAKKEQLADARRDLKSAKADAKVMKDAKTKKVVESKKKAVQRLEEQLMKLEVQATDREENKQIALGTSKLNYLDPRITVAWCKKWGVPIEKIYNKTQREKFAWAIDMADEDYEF
# [8] = test system: DNA-PK -/- cells; assay: cell death of DNA-PK -/- and DNA-PK +/+ cells in response to CPT; type: cell-based, Mouse; conditions: DNA-PK -/- cells compared to DNA-PK +/+ cells, in response to CPT (FIG. 8C)
# Description: (§1) Protein levels in FIG. 8A were determined by immuno blot analysis of cell lysate with anti-βactin.
# (§2) Tissue Culture: Human cervical carcinoma (HeLa) cells, MCF-7 breast cancer cells, BT-474 breast cancer cells and Mouse embryo fibroblasts (MEF) reconstituted for stable expression of DNA-PK (ScH8) and […] MEF (ScSv3, DNA-PK −/−) were grown and maintained in Dulbecco's Modification of Eagle's Medium containing 10% fetal bovine serum, 2 mM L-Glutamine 100 units/mL of Streptomycin and 100 units/mL of Penicillin.
# [9] = molecular target: T3, topoI (Mus musculus, UniProt Q04750); assay: topoI down-regulation in response to CPT in DNA-PK deficient and efficient cells (anti-topoI immunoblot); type: cell-based
# T3 construct: endogenous in cells; host or cells: ScH8 (DNA-PK +/+) and ScSv3 (DNA-PK -/-) mouse embryo fibroblasts
# T3 sequence (Q04750 1-767): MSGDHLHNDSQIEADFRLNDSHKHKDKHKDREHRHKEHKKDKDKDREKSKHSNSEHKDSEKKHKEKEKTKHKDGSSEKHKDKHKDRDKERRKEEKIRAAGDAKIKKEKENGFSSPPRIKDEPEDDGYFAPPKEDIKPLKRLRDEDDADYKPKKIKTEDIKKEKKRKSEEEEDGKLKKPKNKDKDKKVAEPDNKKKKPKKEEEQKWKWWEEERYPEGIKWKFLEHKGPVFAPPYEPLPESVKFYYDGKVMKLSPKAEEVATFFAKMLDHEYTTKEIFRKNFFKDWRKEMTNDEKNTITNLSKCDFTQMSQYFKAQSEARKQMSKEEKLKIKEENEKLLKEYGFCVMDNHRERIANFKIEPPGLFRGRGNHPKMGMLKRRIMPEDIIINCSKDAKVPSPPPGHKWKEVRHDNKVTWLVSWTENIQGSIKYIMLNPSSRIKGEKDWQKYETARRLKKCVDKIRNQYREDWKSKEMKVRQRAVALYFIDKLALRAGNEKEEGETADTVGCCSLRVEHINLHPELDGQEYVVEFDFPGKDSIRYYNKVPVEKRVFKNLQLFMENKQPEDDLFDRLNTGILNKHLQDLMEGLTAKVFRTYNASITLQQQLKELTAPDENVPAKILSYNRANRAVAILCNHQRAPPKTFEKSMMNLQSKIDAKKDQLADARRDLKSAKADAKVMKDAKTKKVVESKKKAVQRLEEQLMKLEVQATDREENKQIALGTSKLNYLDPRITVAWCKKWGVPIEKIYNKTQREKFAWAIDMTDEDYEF
# Description: as §1, §2
# Cell Synchronization and Drug Treatment. MEF cells were phase-synchronized by serum starvation. Cells were incubated for 30 hours in Dulbecco's Modification of Eagle Medium containing 0.1% fetal bovine serum followed by 16 hour incubation in Medium containing 10% fetal bovine serum. Topo I inhibitor treatment was performed using a 25 μM concentration of Irinotecan (Sigma). Transient transfection of cell lines for BRCA1 and BARD1 expression was performed using the Geneporter 2 transfection kit (GenLantis).
# Immunoprecipitation and immunoblot analysis: Cell lysates were prepared for immunoprecipitation and soluble proteins were incubated with anti-BRCA1 or anti-topoI (Topogen, Inc.). The immunoprecipitates were subjected to immunoblotting with anti-BRCA1 or anti-topoI. Antigen-antibody complexes were visualized by enhanced chemiluminescence (ECL detection system, GE, Piscataway, N.J.).
structure (smiles),measurement,setting,value
O=c1cc(N2CCOCC2)oc2c1ccc1ccccc12 [NU7026],effect on CPT induced topoI downregulation by UPP,[1],obliterates CTP induced topoI downregulation
CC[C@@]1(O)C(=O)OCc2c1cc1n(c2=O)Cc2cc3c(CN(C)C)c(O)ccc3nc2-1 [Topotecan],inhibition of HIV-1 infections,[2],inhibit both acute and chronic HIV-1 infections
"CC[C@@]1(O)C(=O)OCc2c1cc1n(c2=O)Cc2cc3ccccc3nc2-1 [CPT, camptothecin]",anti-tumor activity,[3],potent anti-tumor activity
same,localization of GFP-topoI and BRCA1,[4],colocalized in DNA repair foci
same,inhibitory activity toward the biosynthesis of nucleic acids,[5],strong inhibitory activity
same,anti-tumor activity,[6],potent anti-tumor activity
same,rate of topoI down-regulation,[7],decrease in the rate of topoI down-regulation
same,percentage of cell death,[8],higher percentage of cell death
same,rate of topoI down-regulation in response to CPT,[9]; DNA-PK +/+ cells compared with DNA-PK deficient cells,significantly higher rate of topoI down-regulation in DNA-PK +/+ cells
same,degradation of topoI,"[9]; ScH8 cells (DNA-PK +/+) treated with CPT, six hours",complete degradation
same,topoI remained intact,"[9]; ScSV3 cells (DNA-PK -/-) treated with CPT, six hours",more than 50%
